# Assay results taken from publication PMC11612144, “Deep quantification of substrate turnover defines protease subsite cooperativity” (Molecular Systems Biology, 2024).
# No end group written: not given here.
# Assays:
# hDPP4 = biological target: T1, hDPP4 (Homo sapiens, UniProt P27487); experiment: In vitro protease assay by mass spectrometry: cleavage of synthetic GLP-1 N-terminal peptides by hDPP4 over time; type: in vitro ADME; conditions: hDPP4 1 µg in 100 µl, peptide 1 pmol/µl, 21 °C, LC-MS, Fig. 4A; for product formation upon digestion with hDPP4 (in words): 30-120 min, three technical replicates
# T1 construct: purchased Abcam ab79138
# Experimental: Synthetic peptides representing either wild-type or mutated GLP-1 were purchased from Thermo Fisher Scientific and their cleavage by DPP4 was measured over time. Briefly, the lyophilized peptides were dissolved in TBS buffer supplemented with 2 mM TCEP to obtain a stock solution with a final concentration of 0.1 nmol/µl. 1ug of DPP4 and each peptide at a final concentration of 1 pmol/µl were used in reactions at a final volume of 100 µl. To distinguish the products, the four peptides were pooled into two groups. One group contained GLP-1 wt (HAE ([…])) & GLP-1 H1D, E3P (DAP ([…])) and the other group GLP-1 H1D (DAE ([…])) & GLP-1 E3P (HAP ([…])). The assay was performed at 21 °C, aliquots (20 µl) were taken out at the indicated times and mixed with 180 µl of 0.1% trifluoroacetic acid, 2 mM TCEP, 2% acetonitrile in water to stop the reaction.
# The peptides were analyzed by capillary liquid chromatography tandem mass spectrometry (LC-MS) using an Orbitrap Fusion LUMOS, a VanquishNeo-nLC, and a 75umx15cm EasyC18 column kept at 45 °C and mounted on a easy source (Thermo Fisher Scientific). Peptides were loaded on a 0.3 × 5 mm C18 trap using a back flash method for elution. Peptides were separated with a gradient of 0–0.2 min 2–6%B in A, 0.2–4.2 min 6–21%, 4.2–6.2 min 21–30%, 6.2–6.7 min 30–36%, 6.7–7.2 min 36–45%, 7.2–7.5 min 45%-100%, 7.5-12 min 100%. A: 0.1% FA in H2O; B: 0.1% FA, 80% MeCN in H2O, at room temperature and the flow rate during the gradient was 200 nl/min and for the last 4.4 min 350 nl/min. The data were acquired using 120,000 resolution for the peptide measurements in the Orbitrap and a top T (1.5 s) method with HCD fragmentation for each precursor and fragment measurement in the ion trap following the manufacturer guidelines (Thermo Scientific).
# [1] = biological target: C. elegans DPF-3 (DPP8/9-orthologue), full-length, recombinant (C. elegans); experiment: cryo-EM structure; single particle cryo-EM of full-length DPF-3 alone (apo), ~0.3 mg/ml and 2.5% glycerol, grids blotted at 4 °C; homodimer
# GLP-1 receptor = conditions: compared with GLP-1(7-37); ref Mentlein et al, 1993; Muller et al, 2019; cited from earlier work
# Description: To achieve clinical utility, GLP ...
# T1 sequence (P27487 whole entry): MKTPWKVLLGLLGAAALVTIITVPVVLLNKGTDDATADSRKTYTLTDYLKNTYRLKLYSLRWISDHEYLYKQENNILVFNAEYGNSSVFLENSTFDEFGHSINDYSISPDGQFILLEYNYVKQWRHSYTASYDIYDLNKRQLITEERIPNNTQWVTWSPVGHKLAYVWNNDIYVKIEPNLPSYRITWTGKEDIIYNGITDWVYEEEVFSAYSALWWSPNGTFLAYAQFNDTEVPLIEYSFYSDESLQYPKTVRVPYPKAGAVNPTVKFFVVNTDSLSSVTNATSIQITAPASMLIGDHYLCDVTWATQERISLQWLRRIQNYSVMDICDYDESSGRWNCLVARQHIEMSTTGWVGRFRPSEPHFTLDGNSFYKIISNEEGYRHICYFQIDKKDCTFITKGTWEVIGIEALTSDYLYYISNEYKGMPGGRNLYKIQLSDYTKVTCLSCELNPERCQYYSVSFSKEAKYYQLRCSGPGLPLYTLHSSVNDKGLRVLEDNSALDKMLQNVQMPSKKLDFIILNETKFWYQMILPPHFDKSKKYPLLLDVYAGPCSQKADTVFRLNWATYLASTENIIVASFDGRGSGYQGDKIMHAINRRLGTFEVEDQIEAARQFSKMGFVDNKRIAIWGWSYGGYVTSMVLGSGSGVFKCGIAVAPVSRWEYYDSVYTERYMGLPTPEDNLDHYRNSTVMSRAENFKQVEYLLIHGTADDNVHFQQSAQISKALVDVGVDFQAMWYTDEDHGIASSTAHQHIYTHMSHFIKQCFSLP
product formation upon digestion with hDPP4 (in words) (hDPP4),Substance,further results
–,"HAEGTFTSDVSR [HAE, reference compound]",time within which product formation was essentially complete (hDPP4): ≤ 30 min
completely abrogated product formation,HAPGTFTSDVSR [HAP],–
–,"C. elegans DPF-3 (DPP8/9-orthologue), full-length, recombinant (enzyme)",stoichiometry N [1]: 2
–,"GLP-1(9-37): DPP4-processed GLP-1 peptide (EGTFTSDVSSYLEGQAAKEFIAWLVKGRG; Glucagon-like peptide 1; UniProt P01275 100-128, looked up, fragment)",affinity to its receptor (in words) (GLP-1 receptor): reduced affinity
completely abrogated product formation,DAPGTFTSDVSR [DAP],–

Substance,product formation upon digestion with hDPP4 (in words) (hDPP4),further results
DAEGTFTSDVSR [DAE],greatly decreased product levels at all time points and continued product accumulation over 120 min,–
